Measured values reported in patent publication US11548883B2, “Compounds as autotaxin inhibitors and pharmaceutical compositions comprising the same” (LegoChem Biosciences, Inc., priority 2017, dated 2023).
Where a name gives a salt, the structure may show the parent alone.

Tested on: LPA production in blood serum
Test: Inhibitory activity on LPA production in mouse blood serum
Assay type: biochemical
Settings: mouse blood serum (m), 18:1 LPC added

In order of falling IC50:
1. O=C(Cn1cc(-c2cnc(NC3Cc4ccccc4C3)nc2)c(O)n1)N1CCc2[nH]nnc2C1 [Compound 65, 2-(4-{2-[(2,3-dihydro-1H-inden-2-yl)amino]pyrimidin-5-yl}-3-hydroxy-1H-pyrazol-1-yl)-1-{1H,4H,5H,6H,7H-[1,2,3]triazolo[4,5-c]pyridin-5-yl}ethan-1-one]  30 nM
2. CCOc1nn(CC(=O)N2CCc3[nH]nnc3C2)cc1-c1cnc(NC2Cc3ccccc3C2)nc1 [Compound 61, 2-(4-{2-[(2,3-dihydro-1H-inden-2-yl)amino]pyrimidin-5-yl}-3-ethoxy-1H-pyrazol-1-yl)-1-{1H,4H,5H,6H,7H-[1,2,3]triazolo[4,5-c]pyridin-5-yl}ethan-1-one]  25 nM
3. O=C(Cn1cc(-c2cnc(NC3Cc4ccccc4C3)nc2)c(OC2CNC2)n1)N1CCc2[nH]nnc2C1 [Compound 62, 2-[3-(azetidin-3-yloxy)-4-{2-[(2,3-dihydro-1H-inden-2-yl)amino]pyrimidin-5-yl}-1H-pyrazol-1yl]-1-{1H,4H,5H,6H,7H-[1,2,3]triazolo[4,5-c]pyridin-5-yl}ethan-1-one hydrochloride]  22 nM
4. O=C(Cn1cc(-c2cnc(NC3Cc4ccccc4C3)nc2)cn1)N1CCc2[nH]nnc2C1 [Compound 56, 2-(4-{2-[(2,3-dihydro-1H-inden-2-yl)amino]pyrimidin-5-yl}-1H-pyrazol-1-yl)-1-{1H,4H,5H,6H,7H-[1,2,3]triazolo[4,5-c]pyridin-5-yl}ethan-1-one]  13 nM
5. O=C(Cn1cnc(-c2cnc(NC3Cc4ccccc4C3)nc2)c1)N1CCc2[nH]nnc2C1 [Compound 60, 2-(4-{2-[(2,3-dihydro-1H-inden-2-yl)amino]pyrimidin-5-yl}-1H-imidazol-1-yl)-1-{1H,4H,5H,6H,7H-[1,2,3]triazolo[4,5-c]pyridin-5-yl}ethan-1-one]  11 nM

Target: human ENPP2 (Homo sapiens (Human), UniProt Q13822)
Test: Inhibitory activity on human ENPP2 (FS-3 assay)
Assay type: biochemical
Settings: human ENPP2, FS-3 substrate, Table 2
Method: Two-fold dilution of each test compound solution (10 μM, 100% dimethyl sulfoxide) is carried out on 96-well V bottom plate (Costar 3363). After ten-fold dilution of each the test compound solution (100% dimethyl sulfoxide) with deionized distilled water, 10 μL of the diluted each compound solution (10% dimethyl sulfoxide) was aliquoted to a black flat bottom 96-well plate (Costar 3915).

Compared with `CN1C(=O)N(c2ccc3[nH]nnc3c2)C2(CCN(C(=O)c3cnc(NCc4cccc(OC(F)(F)F)c4)nc3)CC2)C1=O` [Compound 9, 1-(1H-1,2,3-benzotriazol-5-yl)-3-methyl-8[2-({[3-(trifluoromethoxy)phenyl]methyl}amino)pyrimidine-5-carbonyl]-1,3,8-triazaspiro[4,5]-decane-2,4-dione], `O=C(Cn1cc(-c2cnc(NC3Cc4ccccc4C3)nc2)c(CN2CCC(F)(F)CC2)n1)N1CCc2[nH]nnc2C1` [Compound 85, 2-{3-[(4,4-difluoropiperidin-1-yl)methyl]-4-{2-[(2,3-dihydro-1H-inden-2-yl)amino]pyrimidin-5-yl}-1H-pyrazol-1-yl}-1-{1H,4H,5H,6H,7H-[1,2,3]triazolo[4,5-c]pyridin-5-yl}ethan-1-one hydrofluoride] is 4.1-fold lower in IC50: 9 nM for the first, 2.2 nM for the second.

Going from `O=C(Cc1nnc(-c2cnc(NC3Cc4ccccc4C3)nc2)o1)N1CCc2[nH]nnc2C1` [Compound 33, 2-(5-(2-((2,3-dihydro-1H-inden-2-yl)amino)pyrimidin-5-yl)-1,3,4-oxadiazol-2-yl)-1-(1,4,6,7-tetrahydro-5H-[1,2,3]triazolo[4,5-c]pyridin-5-yl)ethan-1-one] to `O=C(Cc1nnc(-c2cnc(NC3Cc4ccccc4C3)nc2)[nH]1)N1CCc2[nH]nnc2C1` [Compound 52, 2-(5-{2-[(2,3-dihydro-1H-inden-2-yl)amino]pyrimidin-5-yl}-4H-1,2,4-triazol-3-yl)-1-{1H,4H,5H,6H,7H-[1,2,3]triazolo[4,5-c]pyridin-5-yl}ethan-1-one], the IC50 rises from 2 nM to 3.6 nM (1.8-fold). The first is the more potent here.

First: O=C(O)C1=CCN(C(=O)Cc2nnc(-c3cnc(NC4Cc5ccccc5C4)nc3)o2)CC1 [Compound 48, 1-[2-(5-{2-[(2,3-dihydro-1H-inden-2-yl)amino]pyrimidin-5-yl}-1,3,4-oxadiazol-2-yl)acetyl]-1,2,3,6-tetrahydropyridine-4-carboxylic Acid]
Second: O=C(Cc1nnc(-c2cnc(NC3Cc4ccccc4C3)nc2)o1)Nc1ccc(C(=O)O)cc1 [Compound 50, 4-[2-(5-{2-[(2,3-dihydro-1H-inden-2-yl)amino]pyrimidin-5-yl}-1,3,4-oxadiazol-2-yl)acetamido]benzoic Acid]
The IC50 of the first is 3-fold higher: 13.3 nM for the first, 4.5 nM for the second.

Going from `CCc1cc(-c2cnc(NC3Cc4ccccc4C3)nc2)nn1CC(=O)N1CCc2[nH]nnc2C1` [Compound 54, 2-(3-{2-[(2,3-dihydro-1H-inden-2-yl)amino]pyrimidin-5-yl}-5-ethyl-1H-pyrazol-1-yl)-1-{1H,4H,5H,6H,7H-[1,2,3]triazolo[4,5-c]pyridin-5-yl}ethan-1-one] to `CCc1c(-c2cnc(NC3Cc4ccccc4C3)nc2)cnn1CC(=O)N1CCc2[nH]nnc2C1` [Compound 78, 2-(4-{2-[(2,3-dihydro-1H-inden-2-yl)amino]pyrimidin-5-yl}-5-ethyl-1H-pyrazol-1-yl)-1-{1H,4H,5H,6H,7H-[1,2,3]triazolo[4,5-c]pyridin-5-yl}ethan-1-one], the IC50 falls from 15.8 nM to 2.4 nM (6.6-fold).

Compared with `O=C(Cn1cc(-c2cnc(NC3Cc4ccccc4C3)nc2)cn1)N1CCc2[nH]nnc2C1` [Compound 56, 2-(4-{2-[(2,3-dihydro-1H-inden-2-yl)amino]pyrimidin-5-yl}-1H-pyrazol-1-yl)-1-{1H,4H,5H,6H,7H-[1,2,3]triazolo[4,5-c]pyridin-5-yl}ethan-1-one], `O=C(Cn1cc(-c2ccc(NC3Cc4ccccc4C3)nc2)cn1)N1CCc2[nH]nnc2C1` [Compound 58, 2-(4-{6-[(2,3-dihydro-1H-inden-2-yl)amino]pyridin-3-yl}-1H-pyrazol-1-yl)-1-{1H,4H,5H,6H,7H-[1,2,3]triazolo[4,5-c]pyridin-5-yl}ethan-1-one] is 1.6-fold higher in IC50: 2.2 nM for the first, 3.5 nM for the second. The first is the more potent here.

Compared with `O=C(Cn1cc(-c2cnc(NC3Cc4ccccc4C3)nc2)cn1)Nc1ccc2[nH]c(=O)oc2c1` [Compound 57, 2-(4-{2-[(2,3-dihydro-1H-inden-2-yl)amino]pyrimidin-5-yl}-1H-pyrazol-1-yl)-N-(2-oxo-2,3-dihydro-1,3-benzoxazol-6-yl)acetamide], `O=C(Cn1cc(-c2cnc(NC3Cc4ccccc4C3)nc2)c(OCc2ccccc2)n1)N1CCOCC1` [Compound 64, 2-[3-(benzyloxy)-4-{2-[(2,3-dihydro-1H-inden-2-yl)amino]pyrimidin-5-yl}-1H-pyrazol-1-yl]-1-(morpholin-4-yl)ethan-1-one] is 1.5-fold higher in IC50: 2 nM for the first, 3 nM for the second.

Compared with `O=C(Cn1cc(-c2cnc(NC3Cc4ccccc4C3)cn2)cn1)N1CCc2[nH]nnc2C1` [Compound 59, 2-(4-{5-[(2,3-dihydro-1H-inden-2-yl)amino]pyrazin-2-yl}-1H-pyrazol-1-yl)-1-{1H,4H,5H,6H,7H-[1,2,3]triazolo[4,5-c]pyridin-5-yl}ethan-1-one], `O=C(Cn1cnc(-c2cnc(NC3Cc4ccccc4C3)nc2)c1)N1CCc2[nH]nnc2C1` [Compound 60, 2-(4-{2-[(2,3-dihydro-1H-inden-2-yl)amino]pyrimidin-5-yl}-1H-imidazol-1-yl)-1-{1H,4H,5H,6H,7H-[1,2,3]triazolo[4,5-c]pyridin-5-yl}ethan-1-one] is 6.2-fold lower in IC50: 11.1 nM for the first, 1.8 nM for the second.

First: O=C(Cn1cc(-c2cnc(NC3Cc4ccccc4C3)nc2)c(OC2CNC2)n1)N1CCc2[nH]nnc2C1 [Compound 62, 2-[3-(azetidin-3-yloxy)-4-{2-[(2,3-dihydro-1H-inden-2-yl)amino]pyrimidin-5-yl}-1H-pyrazol-1yl]-1-{1H,4H,5H,6H,7H-[1,2,3]triazolo[4,5-c]pyridin-5-yl}ethan-1-one hydrochloride]
Second: O=C(Cn1cc(-c2cnc(NC3Cc4ccccc4C3)nc2)c(OC2CCNCC2)n1)N1CCc2[nH]nnc2C1 [Compound 69, 2-(4-{2-[(2,3-dihydro-1H-inden-2-yl)amino]pyrimidin-5-yl}-3-(piperidin-4-yloxy)-1H-pyrazol-1-yl)-1-{1H,4H,5H,6H,7H-[1,2,3]triazolo[4,5-c]pyridin-5-yl}ethan-1-one]
The IC50 of the first is 1.7-fold lower: 2.4 nM for the first, 4 nM for the second.

Compared with `O=C(Cn1cc(-c2cnc(NC3Cc4ccccc4C3)nc2)c(O)n1)N1CCc2[nH]nnc2C1` [Compound 65, 2-(4-{2-[(2,3-dihydro-1H-inden-2-yl)amino]pyrimidin-5-yl}-3-hydroxy-1H-pyrazol-1-yl)-1-{1H,4H,5H,6H,7H-[1,2,3]triazolo[4,5-c]pyridin-5-yl}ethan-1-one], `O=C(Cn1cc(-c2cnc(NC3Cc4ccccc4C3)nc2)c(C(=O)N2CCCCC2)n1)N1CCc2[nH]nnc2C1` [Compound 76, 2-(4-{2-[(2,3-dihydro-1H-inden-2-yl)amino]pyrimidin-5-yl}-3-(piperidine-1-carbonyl)-1H-pyrazol-1-yl)-1-{1H,4H,5H,6H,7H-[1,2,3]triazolo[4,5-c]pyridin-5-yl}ethan-1-one] is higher in IC50: < 1.56 nM for the first, 3 nM for the second.

`O=C(Cn1cc(-c2cnc(NC3Cc4ccccc4C3)nc2)c(OCCN2CCNCC2)n1)N1CCc2[nH]nnc2C1` [Compound 67, 2-(4-{2-[(2,3-dihydro-1H-inden-2-yl)amino]pyrimidin-5-yl}-3-[2-(piperazin-1-yl)ethoxy]-1H-pyrazol-1-yl)-1-{1H,4H,5H,6H,7H-[1,2,3]triazolo[4,5-c]pyridin-5-yl}ethan-1-one] and `O=C(Cn1cc(-c2cnc(NC3Cc4ccccc4C3)nc2)c(C(=O)N2CCNCC2)n1)N1CCc2[nH]nnc2C1` [Compound 77, 2-(4-{2-[(2,3-dihydro-1H-inden-2-yl)amino]pyrimidin-5-yl}-3-(piperazine-1-carbonyl)-1H-pyrazol-1-yl)-1-{1H,4H,5H,6H,7H-[1,2,3]triazolo[4,5-c]pyridin-5-yl}ethan-1-one hydrochloride] are within 1.5-fold of each other in IC50: 6.1 nM for the first, 6.5 nM for the second.

`O=C(Cn1cc(-c2cnc(NC3Cc4ccccc4C3)nc2)c(OC2CCN(CC(F)F)CC2)n1)N1CCc2[nH]nnc2C1` [Compound 71, 2-(3-{[1-(2,2-difluoroethyl)piperidin-4-yl]oxy}-4-{2-[(2,3-dihydro-1H-inden-2-yl)amino]pyrimidin-5-yl}-1H-pyrazol-1-yl)-1-{1H,4H,5H,6H,7H-[1,2,3]triazolo[4,5-c]pyridin-5-yl}ethan-1-one] and `CN1CCN(Cc2nn(CC(=O)N3CCc4[nH]nnc4C3)cc2-c2cnc(NC3Cc4ccccc4C3)nc2)CC1=O` [Compound 87, 4-[(4-{2-[(2,3-dihydro-1H-inden-2-yl)amino]pyrimidin-5-yl}-1-(2-oxo-2-{1H,2H,3H,4H,5H,6H,7H-[1,2,3]triazolo[4,5-c]pyridin-5-yl}ethyl)-1H-pyrazol-3-yl)methyl]-1-methylpiperazin-2-one] are within 1.5-fold of each other in IC50: 3.6 nM for the first, 3.1 nM for the second.

`O=C(Cn1cc(-c2cnc(NC3Cc4ccccc4C3)nc2)c(CN2CCc3ccccc32)n1)N1CCc2[nH]nnc2C1` [Compound 83, 2-(4-{2-[(2,3-dihydro-1H-inden-2-yl)amino]pyrimidin-5-yl}-3-(2,3-dihydro-1H-indol-1-ylmethyl)-1H-pyrazol-1-yl)-1-{1H,4H,5H,6H,7H-[1,2,3]triazolo[4,5-c]pyridin-5-yl}ethan-1-one] and `O=C(Cn1cc(-c2cnc(NC3Cc4ccccc4C3)nc2)c(CN2CC=C(c3ccccc3)CC2)n1)N1CCc2[nH]nnc2C1` [Compound 86, 2-(4-{2-[(2,3-dihydro-1H-inden-2-yl)amino]pyrimidin-5-yl}-3-[(4-phenyl-1,2,3,6-tetrahydropyridin-1-yl)methyl]-1H-pyrazol-1-yl)-1-{3H,4H,5H,6H,7H-[1,2,3]triazolo[4,5-c]pyridin-5-yl}ethan-1-one] are within 1.5-fold of each other in IC50: 2.1 nM for the first, 3 nM for the second.

`O=C1CNCCN1Cc1nn(CC(=O)N2CCc3[nH]nnc3C2)cc1-c1cnc(NC2Cc3ccccc3C2)nc1` [Compound 88, 1-[(4-{2-[(2,3-dihydro-1H-inden-2-yl)amino]pyrimidin-5-yl}-1-(2-oxo-2-{1H,4H,5H,6H,7H-[1,2,3]triazolo[4,5-c]pyridin-5-yl}ethyl)-1H-pyrazol-3-yl)methyl]piperazin-2-one] was tested, and the IC50 was 4.1 nM.
